Test system: B. dermatitidis mutant 4-2-2
Assay type: cell-based, Blastomyces dermatitidis

SMILES | Sensitivity of mutant versus parent strain T53-19
Nc1c(/N=N/c2ccc(-c3ccc(/N=N/c4cc(S(=O)(=O)O)c5ccccc5c4N)cc3)cc2)cc(S(=O)(=O)O)c2ccccc12 [Congo red] | more sensitive than the parent strain
O=S(=O)([O-])c1cc(Nc2nc(Nc3ccccc3)nc(N(CCO)CCO)n2)ccc1/C=C/c1ccc(Nc2nc(Nc3ccccc3)nc(N(CCO)CCO)n2)cc1S(=O)(=O)[O-].[Na+].[Na+] [calcofluor] | more sensitive than the parent strain

Source: patent US7888120B2, “Global regulator of morphogenesis and pathogenicity in dimorphic fungi and uses thereof” (Wisconsin Alumni Research Foundation, priority 2006, dated 2011)
